Experimental data from ChEMBL document CHEMBL1201862, “PubChem BioAssay data set” (2004).
Active and inactive are the calls of the source.

Experiments:
[1] = biological target: T1, Zinc finger protein mex-5 (Caenorhabditis elegans, UniProt Q9XUB2); assay: potency of MEX-5 RNA-binding blockers – biochemical, C. elegans, fluorescence polarization, dose response (AID 1960)
T1 sequence (Q9XUB2 whole entry): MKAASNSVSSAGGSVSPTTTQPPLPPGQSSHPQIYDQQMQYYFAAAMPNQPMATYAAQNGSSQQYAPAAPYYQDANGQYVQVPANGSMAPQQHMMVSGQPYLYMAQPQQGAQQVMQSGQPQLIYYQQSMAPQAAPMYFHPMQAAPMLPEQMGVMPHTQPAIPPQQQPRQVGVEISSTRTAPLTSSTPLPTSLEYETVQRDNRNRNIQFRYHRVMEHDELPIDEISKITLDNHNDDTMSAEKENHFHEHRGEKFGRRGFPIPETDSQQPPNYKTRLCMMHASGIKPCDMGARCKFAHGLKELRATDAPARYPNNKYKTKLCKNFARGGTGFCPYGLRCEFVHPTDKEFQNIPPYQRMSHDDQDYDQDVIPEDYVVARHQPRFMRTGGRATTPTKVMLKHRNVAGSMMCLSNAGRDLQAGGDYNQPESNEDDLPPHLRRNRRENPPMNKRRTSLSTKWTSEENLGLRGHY

[2] = biological target: T2, RNA-binding protein pos-1 (Caenorhabditis elegans, UniProt G5EF15); assay: disruptors of C. elegans POS-1 RNA interaction – biochemical, fluorescence polarization, dose response (AID 1964);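 note: purified POS-1 fused to maltose binding protein made in E. coli; potency of compounds blocking POS-1 binding to fluorescent RNA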
T2 sequence (G5EF15 whole entry): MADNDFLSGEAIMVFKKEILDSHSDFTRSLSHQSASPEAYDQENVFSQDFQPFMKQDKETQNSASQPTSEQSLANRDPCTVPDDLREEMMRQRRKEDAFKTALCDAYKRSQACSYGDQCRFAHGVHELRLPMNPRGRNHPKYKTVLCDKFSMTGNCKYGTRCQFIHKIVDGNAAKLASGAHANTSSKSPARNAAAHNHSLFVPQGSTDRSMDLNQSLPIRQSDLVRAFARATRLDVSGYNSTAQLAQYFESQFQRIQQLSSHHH

[3] = HIV-1 Vif–A3G interaction blockers – biochemical, TR-FRET, GST-Vif 1-94, biotin-A3G peptide, dose response retest, primary screen (AID 1117319); assay type: functional;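 note: TR-FRET signal of purified GST-Vif binding a biotinylated A3G peptide; inhibitors lower the FRET signal by blocking Vif and A3G binding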
[4] = biological target: Voltage-dependent T-type calcium channel subunit alpha-1H (Homo sapiens, UniProt O95180); assay type: functional;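 note: channel activity triggered by adding a high calcium stimulation buffer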
[5] = Vero E6 cell cytotoxicity, dose response, cytotoxicity control for non-replicating M. tuberculosis project, secondary assay (AID 492998); assay type: functional, VeroE6; settings: Vero C1008
[6] = biological target: T3, Polyadenylate-binding protein 1 (Homo sapiens, UniProt P11940); assay: MLLE domain peptide-binding blockers, IC50 – biochemical, fluorescence polarization, FITC-PAM2 peptide, dose response (AID 602259); assay type: functional; settings: read-out: IC50_Mean
cells [7] = assay type: functional
[8] = biological target: T3, Polyadenylate-binding protein 1; assay: MLLE binding blockers, Cy5 peptide tracer – biochemical, fluorescence polarization, Cy5-PAM2 peptide, secondary, miRNA deadenylation inhibitor project, dose response (AID 602260); assay type: functional; settings: read-out: IC50_Mean
[9] = THP-1 cell cytotoxicity, dose response, cytotoxicity control for non-replicating M. tuberculosis project (AID 489025); assay type: functional
Vero = assay: cells; assay type: functional; settings: Chlorocebus sabaeus
[10] = biological target: T4, Short transient receptor potential channel 4 (Mus musculus, UniProt Q9QUQ5); assay: calcium entry via TRPC4 opening agents – cell-based, HEK293 TRPC4/mu-opioid, Fluo-4 calcium, dose response (AID 434937); assay type: functional
T4 sequence (Q9QUQ5 whole entry): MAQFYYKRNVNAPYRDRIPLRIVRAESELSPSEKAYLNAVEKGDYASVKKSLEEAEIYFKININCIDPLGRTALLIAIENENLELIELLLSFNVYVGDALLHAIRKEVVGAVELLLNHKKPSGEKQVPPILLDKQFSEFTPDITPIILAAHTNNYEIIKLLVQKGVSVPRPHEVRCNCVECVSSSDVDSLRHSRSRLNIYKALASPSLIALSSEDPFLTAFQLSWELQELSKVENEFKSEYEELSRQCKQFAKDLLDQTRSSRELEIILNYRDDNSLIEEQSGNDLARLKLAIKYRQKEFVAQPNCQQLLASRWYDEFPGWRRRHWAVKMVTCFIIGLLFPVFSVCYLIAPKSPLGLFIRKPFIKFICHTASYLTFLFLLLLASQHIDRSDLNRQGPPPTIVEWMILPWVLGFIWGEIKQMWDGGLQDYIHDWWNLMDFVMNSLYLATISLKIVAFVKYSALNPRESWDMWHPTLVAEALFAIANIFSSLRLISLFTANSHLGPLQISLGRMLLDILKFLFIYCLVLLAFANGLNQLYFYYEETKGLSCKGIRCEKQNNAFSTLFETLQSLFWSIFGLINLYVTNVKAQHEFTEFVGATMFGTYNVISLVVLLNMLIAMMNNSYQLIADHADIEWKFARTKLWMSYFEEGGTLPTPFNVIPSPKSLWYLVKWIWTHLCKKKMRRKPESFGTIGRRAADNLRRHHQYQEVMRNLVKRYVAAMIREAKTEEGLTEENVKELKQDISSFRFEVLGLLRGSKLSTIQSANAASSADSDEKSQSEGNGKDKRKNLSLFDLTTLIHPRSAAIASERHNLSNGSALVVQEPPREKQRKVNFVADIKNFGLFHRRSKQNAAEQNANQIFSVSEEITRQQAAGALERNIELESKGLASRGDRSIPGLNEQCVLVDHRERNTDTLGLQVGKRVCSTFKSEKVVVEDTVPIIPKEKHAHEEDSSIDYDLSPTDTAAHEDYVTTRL

[11] = biological target: T5, Heat shock factor protein 1 (Mus musculus, UniProt P38532); assay: decrease of HSF1-responsive luciferase luminescence – cell-based, NIH3T3, dose retest, confirmation (AID 2382); assay type: functional;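 note: NIH3T3 fibroblasts with HSF1-driven luciferase reporter stressed by proteasome inhibitor MG132; luminescence from HSF1-driven luciferase expression after 8 hours of MG132 stress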
T5 sequence (P38532 whole entry): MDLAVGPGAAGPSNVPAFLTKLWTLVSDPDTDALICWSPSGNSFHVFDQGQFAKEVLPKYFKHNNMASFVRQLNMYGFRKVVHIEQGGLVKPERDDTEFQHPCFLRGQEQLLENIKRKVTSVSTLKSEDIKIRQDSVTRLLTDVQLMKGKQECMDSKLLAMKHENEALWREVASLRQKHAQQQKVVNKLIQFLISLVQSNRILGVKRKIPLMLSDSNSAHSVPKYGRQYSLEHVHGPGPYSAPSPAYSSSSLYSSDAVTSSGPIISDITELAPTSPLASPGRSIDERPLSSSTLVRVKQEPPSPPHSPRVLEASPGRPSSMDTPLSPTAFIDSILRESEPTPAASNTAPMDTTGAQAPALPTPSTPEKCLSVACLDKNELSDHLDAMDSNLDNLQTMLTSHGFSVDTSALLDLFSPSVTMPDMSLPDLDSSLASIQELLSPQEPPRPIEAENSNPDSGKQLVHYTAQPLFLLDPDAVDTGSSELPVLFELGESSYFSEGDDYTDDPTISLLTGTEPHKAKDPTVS

Estrogen receptor beta [12] = biological target: T6, Estrogen receptor beta (Homo sapiens, UniProt Q92731);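 note: recombinant ER-beta bound to coactivator SRC1 peptide in presence of estradiol agonist; inhibitors block coactivator peptide binding and lower the FRET signal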
Estrogen receptor beta [13] = biological target: T6, Estrogen receptor beta; assay: blockers of SRC-3 recruitment to ERβ – biochemical, ELISA, streptavidin-HRP readout, orthogonal assay, confirmation (AID 1060)
[14] = biological target: T7, Calpain-2 catalytic subunit (Sus scrofa, UniProt P43367); assay: m-calpain protease blockers, concentration series – biochemical, fluorogenic peptide substrate, dose response (AID 1420); assay type: functional
T7 sequence (P43367 whole entry): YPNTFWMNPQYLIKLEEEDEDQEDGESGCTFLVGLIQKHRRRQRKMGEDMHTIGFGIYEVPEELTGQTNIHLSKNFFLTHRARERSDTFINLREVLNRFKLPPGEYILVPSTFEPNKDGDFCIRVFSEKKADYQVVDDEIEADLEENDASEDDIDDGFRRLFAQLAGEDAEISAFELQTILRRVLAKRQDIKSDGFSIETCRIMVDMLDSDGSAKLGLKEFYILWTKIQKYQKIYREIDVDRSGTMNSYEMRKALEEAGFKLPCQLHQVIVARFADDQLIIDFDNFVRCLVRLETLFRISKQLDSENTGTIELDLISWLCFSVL

cells [15] = assay type: functional, cell-based
INS1 = assay: INS-1E survival protection against cytokine death – cell-based, luminescence, retest, dose response (AID 449756); assay type: functional; settings: Rattus norvegicus;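 note: cell death triggered by IL-1 beta plus TNF-alpha plus IFN-gamma mixture; protective hits raise ATP signal compared with cytokine alone wells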
[16] = HepG2 cell cytotoxicity, dose response, cytotoxicity control for non-replicating M. tuberculosis project (AID 489018); assay type: functional; settings: Mycobacterium tuberculosis
cells [17] = assay type: functional, cell-based; remark: listed apart in the source

Chain of Voltage-dependent T-type calcium channel subunit alpha-1H (O95180 whole entry): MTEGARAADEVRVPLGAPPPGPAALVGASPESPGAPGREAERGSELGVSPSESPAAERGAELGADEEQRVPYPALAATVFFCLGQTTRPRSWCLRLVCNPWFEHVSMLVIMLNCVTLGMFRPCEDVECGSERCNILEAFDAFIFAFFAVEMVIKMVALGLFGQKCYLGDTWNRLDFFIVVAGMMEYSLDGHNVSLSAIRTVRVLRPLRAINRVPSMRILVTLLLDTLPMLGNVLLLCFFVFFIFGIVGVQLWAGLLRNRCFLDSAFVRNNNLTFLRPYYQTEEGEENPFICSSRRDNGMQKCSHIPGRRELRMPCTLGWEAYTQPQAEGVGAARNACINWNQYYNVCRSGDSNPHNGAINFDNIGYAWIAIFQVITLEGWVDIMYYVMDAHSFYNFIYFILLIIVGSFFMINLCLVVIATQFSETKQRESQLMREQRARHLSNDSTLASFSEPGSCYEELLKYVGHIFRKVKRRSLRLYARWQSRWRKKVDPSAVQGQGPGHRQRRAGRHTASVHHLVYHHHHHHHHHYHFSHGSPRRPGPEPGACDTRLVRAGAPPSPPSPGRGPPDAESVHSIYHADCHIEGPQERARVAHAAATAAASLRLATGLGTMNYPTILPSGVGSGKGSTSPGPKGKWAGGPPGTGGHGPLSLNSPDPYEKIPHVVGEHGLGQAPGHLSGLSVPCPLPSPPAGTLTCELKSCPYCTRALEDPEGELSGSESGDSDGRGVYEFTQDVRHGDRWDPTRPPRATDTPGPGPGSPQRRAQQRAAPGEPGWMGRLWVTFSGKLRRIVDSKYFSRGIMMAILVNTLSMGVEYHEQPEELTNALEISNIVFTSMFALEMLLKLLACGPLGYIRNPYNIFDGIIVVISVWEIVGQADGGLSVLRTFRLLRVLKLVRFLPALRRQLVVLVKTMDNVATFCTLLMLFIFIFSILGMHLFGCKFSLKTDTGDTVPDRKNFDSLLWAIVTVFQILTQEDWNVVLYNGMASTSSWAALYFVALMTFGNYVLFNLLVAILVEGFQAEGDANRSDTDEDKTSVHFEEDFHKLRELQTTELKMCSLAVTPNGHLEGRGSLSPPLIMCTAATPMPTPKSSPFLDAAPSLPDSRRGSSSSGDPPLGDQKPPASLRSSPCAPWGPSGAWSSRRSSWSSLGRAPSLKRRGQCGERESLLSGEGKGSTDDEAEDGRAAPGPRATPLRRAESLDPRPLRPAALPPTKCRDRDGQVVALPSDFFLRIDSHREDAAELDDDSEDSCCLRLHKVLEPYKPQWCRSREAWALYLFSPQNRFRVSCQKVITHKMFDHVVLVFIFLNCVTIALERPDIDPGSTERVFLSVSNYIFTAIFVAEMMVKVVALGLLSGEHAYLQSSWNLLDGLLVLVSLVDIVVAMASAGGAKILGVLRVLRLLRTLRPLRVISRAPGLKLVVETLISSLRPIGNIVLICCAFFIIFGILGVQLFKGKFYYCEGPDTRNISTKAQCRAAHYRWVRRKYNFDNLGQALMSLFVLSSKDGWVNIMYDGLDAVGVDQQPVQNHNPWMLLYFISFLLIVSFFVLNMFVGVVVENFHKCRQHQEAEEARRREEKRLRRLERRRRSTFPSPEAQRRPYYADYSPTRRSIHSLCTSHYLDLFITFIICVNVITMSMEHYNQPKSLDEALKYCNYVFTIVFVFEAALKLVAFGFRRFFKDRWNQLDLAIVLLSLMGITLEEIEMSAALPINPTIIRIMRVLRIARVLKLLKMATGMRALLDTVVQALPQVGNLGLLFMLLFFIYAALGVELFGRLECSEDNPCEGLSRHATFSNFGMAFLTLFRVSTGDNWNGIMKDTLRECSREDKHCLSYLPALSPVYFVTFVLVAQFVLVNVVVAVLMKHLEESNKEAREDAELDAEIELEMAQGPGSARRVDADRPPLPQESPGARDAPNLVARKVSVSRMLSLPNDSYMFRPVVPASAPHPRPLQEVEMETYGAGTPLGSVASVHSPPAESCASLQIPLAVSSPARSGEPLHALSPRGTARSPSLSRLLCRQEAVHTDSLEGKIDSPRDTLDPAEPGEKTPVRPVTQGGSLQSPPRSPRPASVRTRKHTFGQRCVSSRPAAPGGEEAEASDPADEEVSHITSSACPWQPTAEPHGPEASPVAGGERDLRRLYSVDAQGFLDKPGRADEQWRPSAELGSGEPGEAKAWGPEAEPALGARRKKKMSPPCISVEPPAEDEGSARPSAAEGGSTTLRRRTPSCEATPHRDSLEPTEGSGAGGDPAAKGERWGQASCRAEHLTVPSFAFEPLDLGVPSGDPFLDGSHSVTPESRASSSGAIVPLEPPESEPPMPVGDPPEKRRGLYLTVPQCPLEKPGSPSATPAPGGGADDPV
T6 sequence (Q92731 whole entry): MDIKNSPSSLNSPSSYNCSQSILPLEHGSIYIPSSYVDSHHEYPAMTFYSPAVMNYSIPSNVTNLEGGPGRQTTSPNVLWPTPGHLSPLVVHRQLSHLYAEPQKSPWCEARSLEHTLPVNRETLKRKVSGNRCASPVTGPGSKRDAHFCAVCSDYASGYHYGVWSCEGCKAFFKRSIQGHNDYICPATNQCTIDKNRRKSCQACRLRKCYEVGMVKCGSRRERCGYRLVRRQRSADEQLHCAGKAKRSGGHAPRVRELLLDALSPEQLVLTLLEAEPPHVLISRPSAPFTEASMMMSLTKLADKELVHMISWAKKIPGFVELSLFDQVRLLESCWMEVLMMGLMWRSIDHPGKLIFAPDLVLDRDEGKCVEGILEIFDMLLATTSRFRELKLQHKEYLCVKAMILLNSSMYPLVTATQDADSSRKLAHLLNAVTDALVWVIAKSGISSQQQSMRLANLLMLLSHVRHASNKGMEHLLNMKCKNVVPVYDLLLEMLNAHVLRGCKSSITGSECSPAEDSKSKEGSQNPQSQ
T3 sequence (P11940 whole entry, the tested form may be a part): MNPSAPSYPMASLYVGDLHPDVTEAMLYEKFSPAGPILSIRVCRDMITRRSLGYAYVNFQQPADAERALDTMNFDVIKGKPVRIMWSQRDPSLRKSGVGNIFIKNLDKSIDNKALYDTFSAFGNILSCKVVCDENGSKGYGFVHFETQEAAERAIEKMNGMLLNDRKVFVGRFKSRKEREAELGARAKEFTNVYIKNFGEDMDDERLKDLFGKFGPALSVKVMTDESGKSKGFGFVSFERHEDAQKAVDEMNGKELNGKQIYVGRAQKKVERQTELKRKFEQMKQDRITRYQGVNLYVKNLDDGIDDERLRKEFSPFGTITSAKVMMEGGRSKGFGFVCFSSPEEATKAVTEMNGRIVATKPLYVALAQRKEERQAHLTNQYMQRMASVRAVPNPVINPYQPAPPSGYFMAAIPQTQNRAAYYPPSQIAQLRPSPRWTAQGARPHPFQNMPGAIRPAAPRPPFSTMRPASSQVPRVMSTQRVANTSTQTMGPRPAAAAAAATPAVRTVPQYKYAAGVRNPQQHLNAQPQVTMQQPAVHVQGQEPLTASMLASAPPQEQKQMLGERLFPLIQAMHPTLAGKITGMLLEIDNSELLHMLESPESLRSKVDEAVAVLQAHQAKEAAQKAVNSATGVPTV

Structure (SMILES): CCOC(=O)C1Nc2ccc(Br)cc2C2C=CCC12 (centres undefined)
- EC50 [1]: 46 µM (active)
- EC50 [2]: > 300 µM (not active)
- IC50 [3]: > 100 µM (active)

Structure (SMILES): CCC(=O)N1CCN(c2ccc(Cl)cc2NC(=O)Cc2ccccc2)CC1
- EC50 [4]: 10.1 µM (active)

Structure (SMILES): CCN1CSC(=S)N(Cc2ccc(OC)cc2)C1
- CC50 [5]: 6.33 µM (active)
- IC50 [6]: > 66 µM (inactive)
- IC50 (cells [7]): 11.8 µM (active)
- IC50 [8]: > 66 µM (inactive)
- CC50 [9]: 9.8 µM (active)
- CC50 (Vero): 12.1 µM (active)

Structure (SMILES): Cc1ccc(OCC(=O)N(C)CCc2ccccn2)cc1
- EC50 [10]: 6.68 µM (active)

Structure (SMILES): Cc1cc2ncn(CCCCOc3ccccc3)c2cc1C
- EC50 [4]: 7.27 µM (active)

Structure (SMILES): CC(C)(C)c1ccccc1NC(=O)NC1CCN(Cc2c(F)cccc2Cl)CC1
- EC50 [10]: 2.11 µM (active)
- EC50 [11]: > 195 µM (not active)

Structure (SMILES): CCCCN(CCCC)S(=O)(=O)c1ccc(C(=O)Nc2nnc(CSC)o2)cc1
- EC50 [4]: 2.82 µM (active)

Structure (SMILES): Cc1noc(C)c1CCC(=O)NC1CCCN(Cc2ccc(CC(C)C)cc2)C1 (centres undefined)
- EC50 [10]: 3.76 µM (active)

Structure (SMILES): Cc1nn(Cc2ccc(Cl)c(Cl)c2)c(C)c1NC(=O)c1cc(CC(C)C)on1
- EC50 [4]: 1.28 µM (active)

Structure (SMILES): CCOC(=O)Cc1csc(NC(=O)Cc2cccs2)n1
- IC50 (Estrogen receptor beta [12]): 5.81 µM (active)
- IC50 (Estrogen receptor beta [13]): 3.22 µM (not active)

Structure (SMILES): CN(C)C(CNC(=O)CCS(=O)(=O)c1ccccc1)c1ccccc1 (centres undefined)
- EC50 [10]: 0.376 µM (active)

Structure (SMILES): COc1ccc(C(=O)N/N=C(\c2ccccc2)c2ccccn2)cc1
- IC50 [14]: > 50 µM (not active)
- EC50 (cells [15]): 10.3 µM (active)
- CC50 [5]: 2.39 µM (active)
- AC50 (INS1): 1.18 µM (active)
- IC50 (cells [7]): 8.09 µM (active)
- CC50 [9]: 0.517 µM (active)
- CC50 [16]: 9.02 µM (active)
- EC50 (cells [17]): 38.6 µM (active)
- CC50 (Vero): 3.02 µM (active)
